Laboratory results as given in patent US20260258373A1, “PEPTIDE TAGS FOR PHAGE IMAGING” (priority 2022, published 2026).
Where two headings read alike, the source gives them in different places. Cy5 = cyanine 5 dye

What was measured:
Good Vibes phage (GV) [1] = assay: Monoclonal phage ELISA (cross-reactivity / validation) against GV; format: binding; settings: peptide displayed on monoclonal phage; cross-reactivity assay
Experimental: (§1) A Nunc Maxisorp flat-bottom 96-well plate was coated with 6×10^9 pfu GV per well (in TBS, pH 8) and incubated overnight at 4° C. Plates coated with 2% (w/v) bovine serum albumin (BSA) were used as negative controls. Next day, the plates were blocked with 2% (w/v) BSA at room temperature for 1 h, shaking at 800 rpm. The plates were then washed with 0.1% TBST (3×1 min) before adding 20 μL of amplified phage from each biopanning cycle to each well in 5% (w/v) BSA. After further incubation at room temperature for 1 h, shaking at 800 rpm, the plates were washed with 0.5% TBST (3×5 min) before adding 100 μL horseradish peroxidase (HRP)-conjugated anti-M13 monoclonal antibody (Abcam ab50370, diluted 1:500) and incubating at room temperature for 1 h, shaking at 800 rpm. After further washes in 0.5% TBST (3×5 min), Applicant added 100 μL of the tetramethylbenzidine (TMB) substrate (Thermo Fisher Scientific) to each well. The plates were incubated in the dark for 10 min and the absorbance was measured at 370 nm using an Infinite 200 Rx plate reader (Tecan Life Sciences) with 25 flashes in 96-well flat-bottom plate mode.
The protocol was similar to the polyclonal ELISA. […] Monoclonal phages differing in absorbance between GV and BSA by at least 0.3 units were isolated for DNA sanger sequencing (Eurofins Genomics). […]

Matera (MAT) = assay: Monoclonal phage ELISA (cross-reactivity / validation) against MAT; format: binding, Matera (family Myoviridae); settings: peptide displayed on monoclonal phage; cross-reactivity assay
[2] = test system: cowpea mosaic virus (CPMV); assay: Cross-reactivity ELISA against CPMV; format: binding; settings: peptide displayed on monoclonal phage; cross-reactivity assay
Experimental: as §1
(§2) The protocol was similar to the polyclonal ELISA. Applicant coated wells with 10 μg cowpea mosaic virus (CPMV) or 1010 GV particles to assess their binding activity.

BSA = BSA (Bos taurus, UniProt P02769); assay: Cross-reactivity ELISA against BSA (negative control); format: binding, bovine; settings: peptide displayed on monoclonal phage, cross-reactivity assay
Experimental: as §1, §2

Good Vibes phage (GV) [3] = assay: GVBP-Cy5 ELISA; format: binding; settings: GV 0.1, 1, 10 or 63 μg coated; 0.05 μg peptide; fluorescence 647/665 nm; FIG. 5C
Experimental: Applicant then added 0.05 μg of GVBP-Cy5 peptide and incubated for 1 h. […] The fluorescence was measured using an Infinite 200 Rx plate reader with excitation and emission wavelengths of 647 and 665 nm, respectively, and a gain of 50.

[4] = test system: GV bound to P. aeruginosa cells; assay: Flow cytometry of GVBP-Cy5, cells with phages; format: binding, Good Vibes phage on Pseudomonas aeruginosa
Experimental: (§3) An overnight culture of P. aeruginosa was diluted 100-fold in fresh medium. The culture was incubated at 37° C. to reach OD600~0.2 before adding ~10^11 pfu of GV to the cells and incubating at 37° C. for 15 min. The cells were pelleted by centrifugation (6000 g, 15 min, at room temperature), washed once with 800 μL TM buffer (10 mM Tris base, 5 μM CaCl2), 10 mM MgSO4, pH 7.4) and resuspended in 200 μL of the same buffer. Applicant added GVBP-Cy5 (2×10^13 units) and incubated the mixture for 15 min at room temperature before centrifugal washing three times with 0.1% PBST (6000 g, 5 min, at room temperature). The pellet was resuspended in 200 μL TM buffer and the binding of GVBP-Cy5 to GV was analyzed using an Accuri C6 Plus flow cytometer (BD Biosciences). A total of 30,000 events were collected for each analysis.

P. aeruginosa cells = assay: Flow cytometry of GVBP-Cy5, cells without phages; format: binding, Pseudomonas aeruginosa
Experimental: as §3

Good Vibes phage (GV) [5] = settings: GV 1, 10 or 65 μg coated; 0.01 μg peptide; absorbance 450 nm; FIG. 5B
Experimental: GV (1, 10 or 65 μg) was coated onto Nunc Maxisorp flat-bottom 96-well plates and incubated for 1 h at room temperature, shaking at 400 rpm. All incubation and washing steps were carried out at room temperature, shaking at 400 rpm, unless otherwise stated. The wells were blocked for 1 h with 300 μL 5% (w/v) BSA followed by washing once with 0.1% PBST for 5 min. Applicant then added 0.01 μg of GVBP-biotin peptide to the wells and incubated for 1 h. The wells were then washed three times with 0.1% PBST for 5 min each before adding streptavidin HRP conjugate (ab7403) diluted 1:10,000 and incubating for 30 min. The wells were washed another three times as above before adding 100 μL of TMB substrate and incubating for 5-10 min in the dark. The reaction was stopped by adding 50 μL 2M H2SO4 and the absorbance was measured at 450 nm using an Infinite 200 Rx plate reader as described above.

Good Vibes phage (GV) [6] = assay: competitive ELISA, GVER2738 against GVER2738_SYBR on GV-coated wells and on BSA-coated wells

Q: WDLPPIGRLSGN [H2N-WDLPPIGRLSGN—CO2H] was tested. Which “ELISA signal against GV” value (Good Vibes phage (GV) [1]) did it give?
A: strong signal

Q: And the “ELISA signal against MAT” value (Matera (MAT))?
A: strong signal

Q: And the “ELISA signal against CPMV” value [2]?
A: not against CPMV or BSA

Q: And the “ELISA signal against BSA” value (BSA)?
A: not against CPMV or BSA

Q: Which results are given for THLPPIMRNLQF?
A: ELISA signal against GV (Good Vibes phage (GV) [1]): strong signal; ELISA signal against MAT (Matera (MAT)): strong signal; ELISA signal against CPMV [2]: not against CPMV or BSA; ELISA signal against BSA (BSA): not against CPMV or BSA

Q: For “H2N-WDLPPIGRLSGNGGGSK/Cy5/—CO2H (H-WDLPPIGRLSGNGGGSK(Cy5)-OH; also: C-terminal Cy5, attachment not given here) [GVBP-Cy5]”, which “intensity of signal of bound peptide with increasing amounts of GV coating the plates” value (Good Vibes phage (GV) [3]) is on record?
A: became stronger

Q: And the “fluorescent signal (median fluorescence intensity, MFI)” value ([4]; cells and phages plus GVBP-Cy5, FIG. 6B)?
A: strongest fluorescent signal

Q: What about the “APC+ shift” value ([4]; population containing both P. aeruginosa cells and GV phages, in the presence of GVBP-Cy5, FIG. 6A panel iv) of the same molecule?
A: 15.4%

Q: And the “binding to GV by flow cytometry” value ([4]; summary statement)?
A: significant binding

Q: What about the “fluorescent signal (median fluorescence intensity, MFI)” value (P. aeruginosa cells; in the absence of phage, FIG. 6B) of the same molecule?
A: weaker signal

Q: What about the “APC+ shift” value (P. aeruginosa cells; population containing P. aeruginosa cells without phages, peptide added, FIG. 6A panel iii) of the same molecule?
A: 7.6%

Q: How did the “intensity of signal of bound peptide with increasing amounts of GV coating the plates” value (Good Vibes phage (GV) [5]) turn out when “H2N-WDLPPIGRLSGNGGGSK/biotin/—CO2H [GVBP-biotin]” was run?
A: became stronger

Q: With WDLPPIGRLSGN (modifications not checked) [monoclonal phage GVER2738 displaying the peptide …] as the molecule, how does the fold of KD value, GV against BSA (Good Vibes phage (GV) [6]) read?
A: 12 times
